The record followed here is US5977373A, “Thiadiazolyl and oxadiazolyl phenyl oxazolidinone antibacterial agents” (Pharmacia & Upjohn Company, priority 1998, dated 1999).

Common to all, as to format: cell-based
In test [1] the test system is S. Aureus UC ® 9213. Description: In vitro minimum inhibitory concentration (MIC) by agar dilution, gram-positive bacteria (Table 1). Particulars: Staphylococcus aureus, UC9213. The text has this:
(§1) The oxazolidinone antibacterial agents of this invention have useful activity against a variety of microorganisms. The in vitro activity of compounds of this invention can be assessed by standard testing procedures such as the determination of minimum inhibitory concentration (MIC) by agar dilution as described in "Methods for Dilution Antimicrobial Susceptibility Tests for Bacteria That Grow Aerobically" (MFT) published January 1983 by the National Committee for Clinical Laboratory Standards, 771 East Lancaster Avenue, Villanova, Pa. 19084, USA. The activity of selected compounds of this invention against Staphylococcus aureus and Streptococcus pneumoniae are shown in Table 1.

Test [2] deals with S. pneumoniae UC ® 9912. Described as above. The settings on record: Streptococcus pneumoniae, UC9912.
Excerpt: as §1

Test [3] concerns HI 30063. As to the kind of experiment: MIC for a gram negative bacterial strain (Table 2). Particulars: gram negative bacterial strain HI 30063.

≈ marks a conversion by molar mass, not a printed value. Where only a bound is given, the exact number is not on record here.

As for `CC(=O)NC[C@H]1CN(c2ccc(-c3nnc(C#N)s3)c(F)c2)C(=O)O1` [Example 1, (S)-N-[[3-[4-(5-Cyano-1,3,4-thiadiazol-2-yl)-3-fluorophenyl]-2-oxo-5-oxazolidinyl]methyl]acetamide], the values for the MIC in test [1], in test [2] and in test [3] were 0.5 µg/mL (≈ 1.38 µM), under 0.125 µg/mL and 2 µg/mL (≈ 5.53 µM), respectively.
For the compound `CC(=O)NC[C@H]1CN(c2ccc(-c3nnc(C)s3)c(F)c2)C(=O)O1` [Example 3, (S)-N-[[3-[3-Fluoro-4-(5-methyl-1,3,4-thiadiazol-2-yl)phenyl]-2-oxo-5-oxazolidinyl]methyl]acetamide], the minimal inhibitory concentration (MIC) was 1 µg/mL (≈ 2.85 µM) in test [1], under 0.125 µg/mL in test [2] and 2 µg/mL (≈ 5.71 µM) in test [3].
As for `CCc1nnc(-c2ccc(N3C[C@H](CNC(C)=O)OC3=O)cc2F)s1` [Example 4, (S)-N-[[3-[4-(5-Ethyl-1,3,4-thiadiazol-2-yl)-3-fluorophenyl]-2-oxo-5-oxazolidinyl]methyl]acetamide], the MIC worked out at 1 µg/mL (≈ 2.74 µM) in test [1], 0.25 µg/mL (≈ 0.686 µM) in test [2] and 4 µg/mL (≈ 11 µM) in test [3].
On to `CC(=O)NC[C@H]1CN(c2ccc(-c3nnc(CN)s3)c(F)c2)C(=O)O1` [Example 6, (S)-N-[[3-[4-[5-(Aminomethyl)-1,3,4-thiadiazol-2-yl]-3-fluorophenyl]-2-oxo-5-oxazolidinyl]methyl]acetamide], for which the MIC was 8 µg/mL (≈ 21.9 µM) in test [1], under 0.125 µg/mL in test [2] and 2 µg/mL (≈ 5.47 µM) in test [3].
Consider `CC(=O)NC[C@H]1CN(c2ccc(-c3nnc(CNS(C)(=O)=O)s3)c(F)c2)C(=O)O1` [Example 7, (S)-N-[[3-[3-Fluoro-4-[5-[[(methylsulfonyl)amino]methyl]-1,3,4-thiadiazol-2-yl]phenyl]-2-oxo-5-oxazolidinyl]methyl]acetamide], for which the MIC is 4 µg/mL (≈ 9.02 µM) in test [1], under 0.125 µg/mL in test [2] and 2 µg/mL (≈ 4.51 µM) in test [3].
For `CC(=O)NC[C@H]1CN(c2ccc(-c3nnc(CF)s3)c(F)c2)C(=O)O1` [Example 8, (S)-N-[[3-[3-Fluoro-4-(5-fluoromethyl-1,3,4-thiadiazol-2-yl)phenyl]-2-oxo-5-oxazolidinyl]methyl]acetamide], the MIC in test [1] amounted to 1 µg/mL (≈ 2.71 µM); in test [2] it was 0.25 µg/mL (≈ 0.679 µM); in test [3] it was 4 µg/mL (≈ 10.9 µM).
Turning to `CC(=O)NC[C@H]1CN(c2ccc(-c3nncs3)c(F)c2)C(=O)O1` [Example 9, (S)-N-[[3-[3-Fluoro-4-(1,3,4-thiadiazol-2-yl)phenyl]-2-oxo-5-oxazolidinyl]methyl]acetamide], the MIC was determined as 1 µg/mL (≈ 2.97 µM) in test [1], 0.25 µg/mL (≈ 0.743 µM) in test [2] and 4 µg/mL (≈ 11.9 µM) in test [3].
On the same counts, the results for `CC(=O)NC[C@H]1CN(c2ccc(-c3nnc(COC(C)=O)s3)c(F)c2)C(=O)O1` [Example 10, (S)-N-[[3-[4-(5-Acetoxymethyl-1,3,4-thiadiazol-2-yl)-3-fluorophenyl]-2-oxo-5-oxazolidinyl]methyl]acetamide] are 1 µg/mL (≈ 2.45 µM), under 0.125 µg/mL and 4 µg/mL (≈ 9.79 µM).
Regarding `CC(=O)NC[C@H]1CN(c2ccc(-c3nnc(NC=O)s3)c(F)c2)C(=O)O1` [Example 41, (S)-N-[[3-[3-Fluoro-4-[5-(formylamino)-1,3,4-thiadiazol-2-yl]phenyl]-2-oxo-5-oxazolidinyl]methyl]acetamide], the MIC in test [1] stood at 4 µg/mL (≈ 10.5 µM); in test [2], 0.5 µg/mL (≈ 1.32 µM).
On to `CC(=O)NC[C@H]1CN(c2ccc(-c3nnc(CCCl)s3)c(F)c2)C(=O)O1` [Example 42, (S)-N-[[3-[4-[5-(2-Chloroethyl)-1,3,4-thiadiazol-2-yl]-3-fluorophenyl]-2-oxo-5-oxazolidinyl]methyl]acetamide], for which the figures for the MIC in test [1] and in test [2] were 1 µg/mL (≈ 2.51 µM) and under 0.125 µg/mL, respectively.
In the same order, the values of `C/C=C/c1nnc(-c2ccc(N3C[C@H](CNC(C)=O)OC3=O)cc2F)s1` [Example 43, (S)-N-[[3-[3-Fluoro-4-[5-(1-propenyl)-1,3,4-thiadiazol-2-yl]phenyl]-2-oxo-5-oxazolidinyl]methyl]acetamide] are 2 µg/mL (≈ 5.31 µM) and 0.5 µg/mL (≈ 1.33 µM).
Regarding `CC(=O)NC[C@H]1CN(c2ccc(-c3nnc(CCN)s3)c(F)c2)C(=O)O1` [Example 44, (S)-N-[[3-[4-[5-(2-Aminoethyl)-1,3,4-thiadiazol-2-yl]-3-fluorophenyl]-2-oxo-5-oxazolidinyl]methyl]acetamide], the minimum inhibitory concentration (MIC) was over 16 µg/mL in test [1] and 0.25 µg/mL (≈ 0.659 µM) in test [2].
For the compound `CC(=O)NCCc1nnc(-c2ccc(N3C[C@H](CNC(C)=O)OC3=O)cc2F)s1` [Example 45, (S)-N-[[3-[4-[5-[2-(Acetylamino)ethyl]-1,3,4-thiadiazol-2-yl]-3-fluorophenyl]-2-oxo-5-oxazolidinyl]methyl]acetamide], the MIC in test [1] was 16 µg/mL (≈ 38 µM); in test [2], 0.5 µg/mL (≈ 1.19 µM).
Take `CC(=O)NC[C@H]1CN(c2ccc(-c3nnc(CCNS(C)(=O)=O)s3)c(F)c2)C(=O)O1` [Example 46, (S)-N-[[3-[3-Fluoro-4-[5-[2-[(methylsulfonyl)amino]ethyl]-1,3,4-thiadiazol-2-yl]phenyl]-2-oxo-5-oxazolidinyl]methyl]acetamide]: the MIC in test [1] is 16 µg/mL (≈ 35 µM); in test [2] it was 0.5 µg/mL (≈ 1.09 µM).
Regarding `CC(=O)NC[C@H]1CN(c2ccc(-c3nnc(C(C)C)s3)c(F)c2)C(=O)O1` [Example 48, (S)-N-[[3-[3-Fluoro-4-[5-(1-methylethyl)-1,3,4-thiadiazol-2-yl]phenyl]-2-oxo-5-oxazolidinyl]methyl]acetamide], the MIC came out at 1 µg/mL (≈ 2.64 µM) in test [1] and 0.25 µg/mL (≈ 0.661 µM) in test [2].
Take `CC(=O)NCc1nnc(-c2ccc(N3C[C@H](CNC(C)=O)OC3=O)cc2F)s1` [Example 49, (S)-N-[[5-[4-[5-[(Acetylamino)methyl]-2-oxo-3-oxazolidinyl]-2-fluorophenyl]-1,3,4-thiadiazol-2-yl]methyl]acetamide]: the MIC stood at 16 µg/mL (≈ 39.3 µM) in test [1] and 0.25 µg/mL (≈ 0.614 µM) in test [2].
With `CC(=O)NC[C@H]1CN(c2ccc(-c3nnc(CCCN)s3)c(F)c2)C(=O)O1` [Example 57, (S)-N-[[3-[4-[5-(3-Aminopropyl)-1,3,4-thiadiazol-2-yl]-3-fluorophenyl]-2-oxo-5-oxazolidinyl]methyl]acetamide], the results for the MIC in test [1] and in test [2] were 16 µg/mL (≈ 40.7 µM) and 0.5 µg/mL (≈ 1.27 µM), respectively.
Take `CC(=O)NCCCc1nnc(-c2ccc(N3C[C@H](CNC(C)=O)OC3=O)cc2F)s1` [Example 58, (S)-N-[3-[5-[4-[5-[(Acetylamino)methyl]-2-oxo-3-oxazolidinyl]-2-fluorophenyl]-1,3,4-thiadiazol-2-yl]propyl]acetamide]: the MIC turned out to be 8 µg/mL (≈ 18.4 µM) in test [1] and 0.25 µg/mL (≈ 0.574 µM) in test [2].
As to `CC(=O)NC[C@H]1CN(c2ccc(-c3nnc(C(C)=O)s3)c(F)c2)C(=O)O1` [Example 59, (S)-N-[[3-[4-(5-Acetyl-1,3,4-thiadiazol-2-yl)-3-fluorophenyl]-2-oxo-5-oxazolidinyl]methyl]acetamide], the MIC was 2 µg/mL (≈ 5.29 µM) in test [1] and 0.5 µg/mL (≈ 1.32 µM) in test [2].
Consider `CC(=O)NC[C@H]1CN(c2ccc(-c3nnc(CCCCl)s3)c(F)c2)C(=O)O1` [Example 60, (S)-N-[[3-[4-[5-(3-Chloropropyl)-1,3,4-thiadiazol-2-yl]-3-fluorophenyl]-2-oxo-5-oxazolidinyl]methyl]acetamide], for which the MIC in test [1] is 2 µg/mL (≈ 4.84 µM); in test [2], 0.5 µg/mL (≈ 1.21 µM).
In the same order, the values of `CC(=O)NC[C@H]1CN(c2ccc(-c3nnc(S(C)(=O)=O)s3)c(F)c2)C(=O)O1` [Example 62, (S)-N-[[3-[3-Fluoro-4-[5-(methylsulfonyl)-1,3,4-thiadiazol-2-yl]phenyl]-2-oxo-5-oxazolidinyl]methyl]acetamide] are 2 µg/mL (≈ 4.83 µM) and 0.5 µg/mL (≈ 1.21 µM).
As for `CON=C(C)CCc1nnc(-c2ccc(N3C[C@H](CNC(C)=O)OC3=O)cc2F)s1` [Example 65, (S)-N-[[3-[3-Fluoro-4-[5-[3-(methoxyimino)butyl]-1,3,4-thiadiazol-2-yl]phenyl]-2-oxo-5-oxazolidinyl]methyl]acetamide], the minimum inhibitory concentration (MIC) in test [1] was found to be 8 µg/mL (≈ 18.4 µM); in test [2], 2 µg/mL (≈ 4.59 µM).
On the same counts, the results for `CC(=O)NC[C@H]1CN(c2ccc(-c3nnc(CNC(=O)COC(C)=O)s3)c(F)c2)C(=O)O1` [Example 66] are 16 µg/mL (≈ 34.4 µM) and under 0.5 µg/mL.
For the compound `CC(=O)NC[C@H]1CN(c2ccc(-c3nnc(CNC(=O)CO)s3)c(F)c2)C(=O)O1` [Example 67], the MIC was 16 µg/mL (≈ 37.8 µM) in test [1] and under 0.5 µg/mL in test [2].
As for `CC(=O)NC[C@H]1CN(c2ccc(-c3nnc(NC(=O)COC(C)=O)s3)c(F)c2)C(=O)O1` [Example 68, (S)-N-[5-[4-[5-[(Acetylamino)methyl]-2-oxo-3-oxazolidinyl]-2-fluorophenyl]-1,3,4-thiadiazol-2-yl]-2-(acetyloxy)acetamide], the results for the MIC in test [1] and in test [2] were 8 µg/mL (≈ 17.7 µM) and 2 µg/mL (≈ 4.43 µM), respectively.
For `CC(=O)NC[C@H]1CN(c2ccc(-c3nnc(CS(C)(=O)=O)s3)c(F)c2)C(=O)O1` [Example 69, (S)-N-[[3-[3-Fluoro-4-[5-[(methylsulfonyl)methyl]-1,3,4-thiadiazol-2-yl]phenyl]-2-oxo-5-oxazolidinyl]methyl]acetamide], the MIC in test [1] is 4 µg/mL (≈ 9.34 µM); in test [2], under 0.5 µg/mL.
In the same order, the values of `CCC(=O)NC[C@H]1CN(c2ccc(-c3nnc(CCOC)s3)c(F)c2)C(=O)O1` [Example 72, (S)-N-[[3-[3-Fluoro-4-[5-(2-methoxyethyl)-1,3,4-thiadiazol-2-yl]phenyl]-2-oxo-5-oxazolidinyl]methyl]propanamide] are 4 µg/mL (≈ 9.79 µM) and 0.25 µg/mL (≈ 0.612 µM).
In the case of `COCCc1nnc(-c2ccc(N3C[C@H](CNC(C)=O)OC3=O)cc2F)s1` [Example 73, (S)-N-[[3-[3-Fluoro-4-[5-(2-methoxyethyl)-1,3,4-thiadiazol-2-yl]phenyl]-2-oxo-5-oxazolidinyl]methyl]acetamide], the MIC in test [1] is 2 µg/mL (≈ 5.07 µM); in test [2] it was under 0.5 µg/mL.
